Experimental findings from patent US20220387403A1, “COMPOUNDS, COMPOSITIONS AND METHODS FOR TREATING NASH, NAFLD, AND OBESITY” (CVI Pharmaceuticals Limited, priority 2019, published 2022) are described below.

Read-outs that look alike come from different tables or passages of the source.

For series [1], the system named is LDLR mRNA. Kind of series: LDLR mRNA expression in HepG2 cells, semi-quantitative RT-PCR. As to conditions: 8 hours, FIG. 3. Format: cell-based, human. The protocol: HepG2 cells obtained from American Tissue Culture Collection (Manassas, Va., USA) were seeded in 6-well culture plates at a density of 0.8×10^6 cells/well cultured in EMEM containing 0.5% FBS and were treated with each purified compound at indicated doses for 8 hours. Total RNA was isolated, and 2 μg per sample was reverse transcribed with random primers using M-MLV (Promega) at 37° C. for 1 hour. PCR was carried out at 94° C. for 30 sec, 60° C. for 30 sec, and 72° C. for 30 sec with initial activation of the enzyme at 94° C. for 1 minute. Thirty cycles were performed for LDLR and GAPDH. PCR was performed using primers HLDLR-up and HLDLR-lo for LDLR and primers HGAPDH-up and HGAPDH-lo for GAPDH. The PCR products were separated on a 1% agarose gel and the band intensity was quantitated. LDLR mRNA levels were corrected by measuring GAPDH mRNA levels.
Specific stereochemical requirements of +/−THP in the upregulation of LDLR mRNA expression were determined by a similar experiment. HepG2 cells were treated with the pure 14R-(+)-THP or the pure 14S-(−)-THP at the indicated concentrations for 24 hours. The levels of LDLR mRNA and GAPDH mRNA in untreated and the compound-treated HepG2 cells were assessed by semi-quantitative RT-PCR.

Series [2] relates to ACC. Kind of series: Western blot of phosphorylated ACC in HepG2 cells. The class given is cell-based, human. To be noted: 20 μM, 1, 2 and 3 days. The protocol: (§1) Cells were harvested after 1, 2, and 3 days treatment and western blot analysis was conducted using antibodies directed to LDLR and PCSK9. Chicken anti-LDLR was purchased from Abcam, the mouse anti-PCSK9 was purchased from Cayman Chemicals, and anti-pACC was purchased from Cell Signaling.
(§2) Chicken anti-LDLR was purchased from Abcam and the mouse anti-PCSK9 was purchased from Cayman Chemicals. HepG2 cells cultured in 60-mm dishes were incubated overnight in medium containing 0.5% fetal bovine serum prior to the addition of compounds at 20 uM concentration for 1-3 days. Total cell lysate was isolated and 50 μg of protein was separated on SDS-PAGE and transferred to nitrocellulose membrane for immunoblotting with anti-LDLR, anti-PCSK9, and anti-p-ACC.
Background: Immunoblotting shows a protein as a band on a membrane.

Series [3] relates to LDLR. Briefly: Western blot of LDLR protein in HepG2 cells. To be noted: for LDLR protein levels (in words): 20 μM, 1, 2 and 3 days. Format: cell-based, human. The protocol: as §1
(§3) To determine whether the stimulatory effects of statins on LDLR protein expression could be enhanced by some new compounds invented herein, HepG2 cells were untreated or treated with a low dose of rosuvastatin (RSV) at 0.3 and 1 uM concentration in the absence or the presence of Compound 127(+), or treated with low concentrations of Compound 127(+) alone for 2 days. Western blot analysis was conducted to examine LDLR and PCSK9 protein levels. Compound 127(+) is the single enantiomer of compound 127 with a positive optical rotation. […] Furthermore, the inducing effects of RSV on PCSK9 protein levels were antagonized by compound 127(+).
as §2

For series [4], the system named is PCSK9. Kind of series: Western blot of PCSK9 protein in HepG2 cells. Format: cell-based, human. As to conditions: for expression of PCSK9 protein (in words): 20 μM, 1, 2 and 3 days. The protocol: as §1, §3, §2
Series [5] deals with hyperlipidemic rabbits. Kind of series: Lipid lowering effects and blood chemistry in hyperlipidemic rabbits. To be noted: for serum total cholesterol level: in mM.
Protocol: (§4) Forty-two male Japanese rabbits were fed the cholesterol enriched rabbit diet for two weeks to induce hypercholesterolemia. […] Serum samples were collected at day 0 (before the drug treatment) and day 7. […] All tested animals were sacrificed at the end of a total of 14 days treatment and serum samples were analyzed for TC, LDL-C, TG, and HDL-C. In addition to lipid profiles, a number of biochemical parameters were also analyzed to aseesee the effects of drug treatments on liver function, muscle function, kidney function, and heart function.
Series [6] relates to hyperlipidemic rabbits. As to conditions: rabbit, in vivo.
Protocol: as §4
The test system of series [7] is Male Wister rats. Briefly: Food intake and body weight in Wister rats under a high fat and high cholesterol diet. Format: in vivo, rat. To be noted: 4-week treatment. The protocol:
The food intake and body weight gains were measured every week during the 4-week treatment period. […] In the first week, the amount of food consumed was decreased in CRDL-treated group. […] The ability of CRDL to activate AMPK signaling pathway to increase energy expenditure and to reduce fat accumulation likely contributes to this weight reducing effect.

Series [8] has as its system Male Wister rats. Kind of series: Lipid lowering effects in Wister rats under a high fat and high cholesterol diet. Format: in vivo, rat. As to conditions: 75 mg/kg daily oral. The protocol:
Male Wister rats were used as an animal model to examine the in vivo effects of (14R, 13S)-CRDL in plasma lipid levels.
In one experiment, 18 Wister male rats under a high fat and high cholesterol diet were divided into 2 groups. One group was given (14R, 13S)-CRDL hydrochloride salt orally at a daily dose of 75 mg/kg by an orogastric tube for 4 weeks, and the control group received daily treatment of equal amount of vehicle (0.1 M sodium phosphate, pH 3.5). Serum lipid levels were measured weekly.
At the end of treatment, Rats were sacrificed and blood and sera were collected to measure several critical parameters for liver function and kidney function. […] Kidney function and blood glucose level were not changed by the treatment.

Where [9] appears, read: with rosuvastatin 0.3 and 1 uM, 2 days.
The mark [10] stands for this setting: after 14 days of drug treatment, mean, n = 6.
Where [11] appears, read: treatment day 0 (before the drug treatment), mean ± SD, n = 6.
Where [12] appears, read: treatment day 4, 128(+)/128(−) 30 mg/kg, SMV/ATV 3 mg/kg once a day oral gavage.
Where [13] appears, read: treatment day 7, 128(+)/128(−) 30 mg/kg, SMV/ATV 3 mg/kg once a day oral gavage.
Setting [14] is: treatment day 10, from day 7 128(+)/128(−) 60 mg/kg, SMV/ATV 10 mg/kg.
Where [15] appears, read: treatment day 14, from day 7 128(+)/128(−) 60 mg/kg, SMV/ATV 10 mg/kg.

As for `COc1cc2c(cc1O)CCN1Cc3c(ccc(OC)c3OC)CC21` (stereo not drawn) [14R-(+)-CRPM, 14R-(+)-corypalmine], the “effects on LDLR mRNA expression (in words)” value in series [1] was “potent and dose-dependent effects”.
`COc1cc2c(cc1OC)[C@H]1Cc3ccc(OC)c(OC)c3CN1CC2` [14R-(+)-THP, 14R-(+)-tetrahydropalmatine]: the “effects on LDLR mRNA expression (in words)” value in series [1] is “potent and dose-dependent effects”.
Turning to `COc1cc2c(cc1OC)C1Cc3ccc(OC)c(OS(=O)(=O)c4cccc(F)c4)c3CN1CC2` (stereo not drawn) [127(+), 2,3,10-Trimethoxy-5,6,7,8,13,13a-hexahydroisoquinolino[2,1-b]isoquinolin-9-yl 3-fluorobenzenesulfonate], the “ACC phosphorylation (in words)” value in series [2] is recorded as “induced”. The “LDLR protein levels (in words)” value in series [3] was “effectively increased”. For the same molecule, the “stimulatory effects of statins on LDLR protein expression, combination (in words)” value in series [3] (setting [9]) is listed as “further improved”. The “expression of PCSK9 protein (in words)” value in series [4] is listed as “strongly inhibited”. The “inducing effects of RSV on PCSK9 protein levels, combination (in words)” value in series [4] (setting [9]) is “antagonized”.
In series [5] (setting [10]), `COc1ccc2c(c1)CCN1Cc3c(ccc(OC)c3OS(=O)(=O)c3cccc(F)c3)CC21` (stereo not drawn) [128(+), 3,10-Dimethxoy-5,6,7,8,13,13a-hexahydroisoquinolino[2,1-b]isoquinolin-9-yl 3-fluorobenzenesulfonate] returned an ALP of 165.2 IU/L, an ALT of 68.7 IU/L, an AST of 20.8 IU/L and a CK of 1172.3 U/L. In series [5] (setting [10]), this molecule displayed a CREA of 97.2 µmol/L, a GLU of 7.9 mmol/L, an HDL-C of 3.6 mmol/L and an LDH of 47.7 IU/L. In addition, in series [5] (setting [10]), the LDL-C is reported as 29.7 mmol/L, the TC was 34.2 mmol/L, the TG stood at 1.0 mmol/L and the body weight worked out at 2.6 kg. Also, in series [5] (setting [11]), the “serum total cholesterol level” value is recorded as 28.6 ± 6.7. The “serum total cholesterol level” value in series [5] (setting [12]) is reported as 31.9 ± 7.5. The “serum total cholesterol level” value in series [5] (setting [13]) was 33.9 ± 7.2. Moreover, the “serum total cholesterol level” value in series [5] (setting [14]) stood at 33.8 ± 7.8. For the same molecule, the “serum total cholesterol level” value in series [5] (setting [15]) is 34.2 ± 7.4. Further, the “ACC phosphorylation (in words)” value in series [2] is on record as “induced”. Besides, in series [3], the “LDLR protein levels (in words)” value is “effectively increased”. Besides, the “expression of PCSK9 protein (in words)” value in series [4] is reported as “strongly inhibited”.
In series [6], `COc1ccc2c(c1)CCN1Cc3c(ccc(OC)c3OS(=O)(=O)c3cccc(F)c3)CC21` (stereo not drawn) [128(−), 3,10-Dimethxoy-5,6,7,8,13,13a-hexahydroisoquinolino[2,1-b]isoquinolin-9-yl 3-fluorobenzenesulfonate] showed an ALP of 155.5 IU/L, an ALT of 50.2 IU/L, an AST of 20.8 IU/L and a CK of 997.5 U/L. In series [6], the CREA stood at 105.2 µmol/L, the GLU came out at 7.9 mmol/L, the LDH is listed as 50.3 IU/L and the “adverse effect / toxicities (in words)” value is “absence of any adverse effect”. Further, in series [5] (14 days treatment), the “TC and LDL-C reduction (in words)” value is “strong TC and LDL-C reduction”. Also, in series [5] (setting [10]), the HDL-C came out at 3.5 mmol/L, the LDL-C turned out to be 24.4 mmol/L, the TC was determined as 29.7 mmol/L and the TG came to 0.9 mmol/L. Besides, the “serum total cholesterol level” value in series [5] (setting [11]) is 28.5 ± 6.3. For the same molecule, in series [5] (setting [12]), the “serum total cholesterol level” value came out at 29.9 ± 8.0. The “serum total cholesterol level” value in series [5] (setting [13]) is given as 29.0 ± 7.9. Further, the “serum total cholesterol level” value in series [5] (setting [14]) was determined as 27.9 ± 5.2. In addition, in series [5] (setting [15]), the “serum total cholesterol level” value is given as 29.7 ± 4.9. Moreover, in series [2], the “ACC phosphorylation (in words)” value is recorded as “induced”. Further, the “LDLR protein levels (in words)” value in series [3] is listed as “effectively increased”. For the same molecule, in series [4], the “expression of PCSK9 protein (in words)” value is on record as “strongly inhibited”.
Regarding `COc1cc2c(cc1OC)[C@H]1[C@@H](C)c3ccc(OC)c(OC)c3CN1CC2` [CRDL, corydaline], the body weight result in series [7] is recorded as “maintained constant”. Besides, in series [8] (4 weeks), the “adverse effects during the entire treatment” value is “No any adverse effects”. Further, in series [8] (end of 4-week treatment), the “Kidney function and blood glucose level” value is reported as “not changed”; the “serum levels of AST and ALT vs control group” value was “statistically lower”. For the same molecule, in series [8] (hydrochloride salt, 4 weeks), the “LDL-c level, of control” value was determined as 25.6%; the “LDL-c level, of day 0” value was found to be 22.4%; the “TC compared to the control group” value was 33.8%; the “TC, of the pretreatment level” value was determined as 33.0%. Further, in series [8] (hydrochloride salt, 4 weeks), the “TG level, of the control” value worked out at 29% and the “TG level, of the pretreatment level (day 0)” value was determined as 27%.
